Data from article PMC8645336, “Benchmarking a highly selective USP30 inhibitor for enhancement of mitophagy and pexophagy” (Life Science Alliance, 2021).

Tests used:
Assay in all cases: biochemical
Parameters in all cases: Ubiquigent DUB profiler selectivity panel, remaining enzyme activity as % of control
Settings in all cases: read-out: % of control remaining
OTU1 = biological target: T1, OTU1 (Homo sapiens, UniProt Q5VVQ6)
T1 construct: gene YOD1
T1 sequence (Q5VVQ6 1-348): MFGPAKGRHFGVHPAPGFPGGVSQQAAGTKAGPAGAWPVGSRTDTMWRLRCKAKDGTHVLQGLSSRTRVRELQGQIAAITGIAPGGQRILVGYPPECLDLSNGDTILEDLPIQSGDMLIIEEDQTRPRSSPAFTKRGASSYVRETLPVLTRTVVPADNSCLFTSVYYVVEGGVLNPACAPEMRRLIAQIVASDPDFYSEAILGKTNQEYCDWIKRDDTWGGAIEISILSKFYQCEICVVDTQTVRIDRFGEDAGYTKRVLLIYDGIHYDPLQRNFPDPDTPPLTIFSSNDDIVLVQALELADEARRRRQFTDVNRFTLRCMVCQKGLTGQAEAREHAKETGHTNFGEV
How it was run: (§1)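 CMPD-39 selectivity was profiled at 1-100 μM across >40 DUBs. Cellular engagement used 2 h CMPD-39 pretreatment, then HA-Ub-PA probe for 10 min at 37°C, with USP30 band shift on immunoblot. TOMM20 ubiquitylation was blotted in YFP-PRKN hTERT-RPE1 cells after 1 h antimycin A/oligomycin A (1 μM each).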

UCHL3 = biological target: T2, UCHL3 (Homo sapiens, UniProt P15374)
T2 sequence (P15374 1-230): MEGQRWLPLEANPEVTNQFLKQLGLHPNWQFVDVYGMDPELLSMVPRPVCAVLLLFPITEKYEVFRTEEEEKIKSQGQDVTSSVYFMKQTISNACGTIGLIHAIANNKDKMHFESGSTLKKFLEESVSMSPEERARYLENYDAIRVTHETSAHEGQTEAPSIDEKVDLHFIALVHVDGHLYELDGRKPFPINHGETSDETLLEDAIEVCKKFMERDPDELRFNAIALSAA
How it was run: as §1

USP6 = USP6 (Homo sapiens, UniProt P35125)
Chain of USP6 (P35125 whole entry): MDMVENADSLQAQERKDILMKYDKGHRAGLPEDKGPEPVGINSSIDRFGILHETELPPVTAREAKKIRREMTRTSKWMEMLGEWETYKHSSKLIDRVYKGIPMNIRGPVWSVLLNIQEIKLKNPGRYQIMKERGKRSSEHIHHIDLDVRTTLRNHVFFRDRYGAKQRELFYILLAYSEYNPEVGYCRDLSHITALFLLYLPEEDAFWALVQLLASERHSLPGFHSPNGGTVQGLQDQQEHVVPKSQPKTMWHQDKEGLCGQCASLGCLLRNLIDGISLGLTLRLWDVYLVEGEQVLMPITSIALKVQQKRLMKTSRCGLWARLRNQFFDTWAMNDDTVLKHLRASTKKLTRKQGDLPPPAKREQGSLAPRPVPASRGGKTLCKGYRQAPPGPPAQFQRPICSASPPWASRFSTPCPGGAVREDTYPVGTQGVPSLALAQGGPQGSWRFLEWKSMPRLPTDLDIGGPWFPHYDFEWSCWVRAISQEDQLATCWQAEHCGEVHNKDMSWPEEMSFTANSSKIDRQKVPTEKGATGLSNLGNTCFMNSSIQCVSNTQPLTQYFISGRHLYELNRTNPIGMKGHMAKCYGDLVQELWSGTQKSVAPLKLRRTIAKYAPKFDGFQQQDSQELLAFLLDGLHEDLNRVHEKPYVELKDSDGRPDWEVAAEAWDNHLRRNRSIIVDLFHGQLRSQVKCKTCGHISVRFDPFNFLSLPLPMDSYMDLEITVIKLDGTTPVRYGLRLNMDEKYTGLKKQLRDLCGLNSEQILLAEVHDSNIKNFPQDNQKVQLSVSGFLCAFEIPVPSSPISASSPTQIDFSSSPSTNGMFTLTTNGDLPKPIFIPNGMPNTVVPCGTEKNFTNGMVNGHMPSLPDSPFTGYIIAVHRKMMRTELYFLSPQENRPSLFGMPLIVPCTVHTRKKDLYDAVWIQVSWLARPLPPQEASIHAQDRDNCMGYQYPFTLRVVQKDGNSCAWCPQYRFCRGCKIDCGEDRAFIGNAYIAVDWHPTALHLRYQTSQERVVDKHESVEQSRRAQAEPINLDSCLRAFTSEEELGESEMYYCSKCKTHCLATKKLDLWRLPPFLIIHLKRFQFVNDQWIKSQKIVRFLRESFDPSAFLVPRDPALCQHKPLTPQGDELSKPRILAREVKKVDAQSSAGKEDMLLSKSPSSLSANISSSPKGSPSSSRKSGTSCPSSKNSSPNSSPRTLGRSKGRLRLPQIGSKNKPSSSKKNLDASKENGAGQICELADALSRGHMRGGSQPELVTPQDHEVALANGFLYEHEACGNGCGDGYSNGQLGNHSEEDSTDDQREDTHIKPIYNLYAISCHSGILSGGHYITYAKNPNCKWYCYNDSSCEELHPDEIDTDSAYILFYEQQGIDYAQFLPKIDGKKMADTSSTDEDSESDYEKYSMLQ
How it was run: as §1

VCPIP = biological target: T3, VCPIP (Homo sapiens, UniProt Q96JH7)
T3 construct: gene VCPIP1
T3 sequence (Q96JH7 1-1222): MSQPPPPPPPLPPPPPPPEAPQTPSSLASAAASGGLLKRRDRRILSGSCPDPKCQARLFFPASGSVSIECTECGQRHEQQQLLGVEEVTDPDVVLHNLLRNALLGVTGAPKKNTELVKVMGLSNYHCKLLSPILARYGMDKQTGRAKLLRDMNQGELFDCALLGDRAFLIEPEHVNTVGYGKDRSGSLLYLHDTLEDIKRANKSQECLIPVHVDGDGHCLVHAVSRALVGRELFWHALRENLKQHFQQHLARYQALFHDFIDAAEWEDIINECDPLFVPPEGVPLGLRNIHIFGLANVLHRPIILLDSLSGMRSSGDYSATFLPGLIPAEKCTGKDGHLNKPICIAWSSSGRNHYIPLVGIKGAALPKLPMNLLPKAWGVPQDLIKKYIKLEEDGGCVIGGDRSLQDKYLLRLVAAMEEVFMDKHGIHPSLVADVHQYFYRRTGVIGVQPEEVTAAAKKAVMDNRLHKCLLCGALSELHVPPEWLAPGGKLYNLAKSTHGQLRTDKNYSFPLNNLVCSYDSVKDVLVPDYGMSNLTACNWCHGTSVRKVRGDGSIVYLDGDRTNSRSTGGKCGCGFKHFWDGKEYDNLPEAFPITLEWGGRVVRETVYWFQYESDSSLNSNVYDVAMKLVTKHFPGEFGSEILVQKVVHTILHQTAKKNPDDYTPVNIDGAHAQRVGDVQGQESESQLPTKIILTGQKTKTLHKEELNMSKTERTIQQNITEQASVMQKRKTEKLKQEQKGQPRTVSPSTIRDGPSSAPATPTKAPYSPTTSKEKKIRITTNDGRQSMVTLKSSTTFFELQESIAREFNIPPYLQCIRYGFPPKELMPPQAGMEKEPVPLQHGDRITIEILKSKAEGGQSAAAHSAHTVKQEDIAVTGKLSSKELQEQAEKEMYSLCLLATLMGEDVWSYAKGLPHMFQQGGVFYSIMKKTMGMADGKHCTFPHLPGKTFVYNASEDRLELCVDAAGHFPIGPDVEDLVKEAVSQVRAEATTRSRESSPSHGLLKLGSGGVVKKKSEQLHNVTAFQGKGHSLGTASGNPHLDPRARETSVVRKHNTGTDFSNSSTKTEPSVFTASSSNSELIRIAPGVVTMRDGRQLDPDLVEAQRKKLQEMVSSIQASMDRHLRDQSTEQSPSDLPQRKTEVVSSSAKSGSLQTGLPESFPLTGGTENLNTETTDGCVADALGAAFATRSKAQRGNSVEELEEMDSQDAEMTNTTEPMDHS
How it was run: as §1

remaining activity at 1 µM (OTU1): 105%
remaining activity at 10 µM (OTU1): 97.8%
remaining activity at 100 µM (OTU1): 101%
remaining activity at 1 µM (UCHL3): 107%
remaining activity at 10 µM (UCHL3): 98.8%
remaining activity at 100 µM (UCHL3): 97.6%
remaining activity at 1 µM (USP6): 101%
remaining activity at 10 µM (USP6): 96.8%
remaining activity at 100 µM (USP6): 90.6%
remaining activity at 1 µM (VCPIP): 109%
remaining activity at 10 µM (VCPIP): 96.5%
remaining activity at 100 µM (VCPIP): 95.6%
Compound: CC(C)(C)NS(=O)(=O)c1ccc(NC(=O)[C@H](Cc2ccccc2)NC(=O)c2ccc(F)cc2)cc1 [compound 39, CMPD-39]
